In patent US10597409B2, “Water-soluble triazapyridinophane-based complexing agents and corresponding fluorescent lanthanide complexes” (CISBIO BIOASSAYS, priority 2015, dated 2020):

Columns and labels:
[1] = Solubility in H2O (biological and buffer media); assay type: physicochemical; conditions: for Solubility in H2O: yes/no
[2] = Photophysical measurements of the lanthanide complexes (absorption, emission, brightness, lifetime); assay type: physicochemical

| Compound | Solubility in water (biological and buffer media) [1] | Solubility in H2O [1] | Absorption λmax [2] | Brightness ε × Φ (H2O) ([2]; in H2O) | Lifetime τH2O ([2]; in H2O) |
| --- | --- | --- | --- | --- | --- |
| COC(=O)COc1ccc(C#Cc2cc3nc(c2)CN(CC(=O)O)Cc2cc(C#Cc4ccc(OCC(=O)OC)cc4)cc(n2)CN(CC(=O)O)Cc2cc(C#Cc4ccc(OCCCN)cc4)cc(n2)CN(CC(=O)O)C3)cc1 [Complex 62] | insoluble in water | no | 320 nm | – | – |
| COC(=O)COc1cc(OC)c(-c2cc3nc(c2)CN(CC(=O)O)Cc2cc(-c4c(OC)cc(OCC(=O)OC)cc4OC)cc(n2)CN(CC(=O)O)Cc2cc(-c4ccc(OCCCN)cc4)cc(n2)CN(CC(=O)O)C3)c(OC)c1 [Complex 63] | insoluble in water | no | 328 nm | – | – |
| O=C(O)CN1Cc2cccc(n2)CN(CC(=O)O)Cc2cccc(n2)CN(CC(=O)O)Cc2cccc(n2)C1 [Pyridinophane] | soluble in water | yes | 267 nm | 564 | 0.78 ms |
